pIC50: −log10 of the molar value.
Legend:
[1] = test system: BCL-2-dependent acute lymphoblastic leukemia (ALL) cell line RS4;11 overexpressing Bcl-2 G101V; assay: cells; type: cell-based; details: Homo sapiens, RS4-11; about 72 hours, ATPlite luminescence; read-out: RS4;11-G101V IC50
Procedure: Biological Example 2: In vitro Anti-proliferation Assay in BCL-2-dependent acute lymphoblastic leukemia (ALL) cell line RS4; 11 overexpressing Bcl-2 G101V
Cell antiproliferation was assayed by PerkinElmer ATPlite™ Luminescence Assay System. Briefly, the various test cancer cell lines were plated at a density of about 1×10^4 cells per well in Costar 96-well plates, and were incubated with different concentrations of compounds for about 72 hours in medium supplemented with 5% FBS or 10% normal human serum (NHS). One lyophilized substrate solution vial was then reconstituted by adding 5 mL of substrate buffer solution, and was agitated gently until the solution was homogeneous. About 50 μL of mammalian cell lysis solution was added to 100 μL of cell suspension per well of a microplate, and the plate was shaken for about five minutes in an orbital shaker at −700 rpm. This procedure was used to lyse the cells and to stabilize the ATP. Next, 50 μL substrate solution was added to the wells and microplate was shaken for five minutes in an orbital shaker at −700 rpm. Finally, the luminescence was measured by a PerkinElmer TopCount® Microplate Scintillation Counter. Such assays, carried out with a range of doses of test compounds, allowed the determination of the cellular anti-antiproliferative IC50 of the compounds of the present invention.

[2] = target: MDM2 (Homo sapiens (Human), UniProt Q00987); assay: In vitro MDM2 HTRF assay (inhibition of p53-MDM2 interaction); type: binding; details: GST-MDM2 / biotinylated p53 peptide
Chain of MDM2 (Q00987 whole entry): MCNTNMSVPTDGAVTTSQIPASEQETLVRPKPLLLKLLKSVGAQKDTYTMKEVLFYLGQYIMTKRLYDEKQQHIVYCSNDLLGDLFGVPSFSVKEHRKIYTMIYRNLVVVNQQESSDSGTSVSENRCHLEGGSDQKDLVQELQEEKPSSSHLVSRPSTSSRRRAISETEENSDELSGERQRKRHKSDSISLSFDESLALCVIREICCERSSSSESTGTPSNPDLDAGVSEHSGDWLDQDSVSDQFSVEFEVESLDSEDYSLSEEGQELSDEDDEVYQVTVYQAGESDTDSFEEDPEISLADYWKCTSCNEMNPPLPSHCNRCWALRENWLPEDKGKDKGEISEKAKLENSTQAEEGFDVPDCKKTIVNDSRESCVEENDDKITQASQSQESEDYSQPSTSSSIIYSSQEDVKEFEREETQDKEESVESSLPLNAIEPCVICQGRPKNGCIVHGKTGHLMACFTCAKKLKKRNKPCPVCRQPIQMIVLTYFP

Row | Compound | pIC50 [1] | pIC50 [2]
1 | COc1cc(C(=O)N2CCC3(CC2)C[C@@H]3C#Cc2cccc3c2CN(C2CCC(=O)NC2=O)C3=O)ccc1NC(=O)[C@@H]1N[C@@H](CC(C)(C)C)[C@@]2(CNc3cc(Cl)ccc32)[C@H]1c1cccc(Cl)c1F (stereo partly drawn) [Example 44, (2′S,3S,4′S,5′R)-6-chloro-4′-(3-chloro-2-fluorophenyl)-2′-(2,2-dimethylpropyl)-N-{4-[(1S)-1-{2-[2-(2,6-dioxopiperidin-3-yl)-1-oxo-3H-isoindol-4-yl]ethynyl}-6-azaspiro[2.5]octane-6-carbonyl]-2-methoxyphenyl}-1,2-dihydrospiro[indole-3,3′-pyrrolidine]-5′-carboxamide] | 7.88 | 8.74
2 | COc1cc(C(=O)NCCCC#Cc2cccc3c2CN([C@H]2CCC(=O)NC2=O)C3=O)ccc1NC(=O)[C@@H]1N[C@@H](CC(C)(C)C)[C@@]2(CNc3cc(Cl)ccc32)[C@H]1c1cccc(Cl)c1F [Example 18, (2′S,3S,4′S,5′R)-6-chloro-4′-(3-chloro-2-fluorophenyl)-N-(4-((5-(2-((S)-2,6-dioxopiperidin-3-yl)-1-oxoisoindolin-4-yl)pent-4-yn-1-yl)carbamoyl)-2-methoxyphenyl)-2′-neopentylspiro[indoline-3,3′-pyrrolidine]-5′-carboxamide] | 8.23 | 8.89
3 | COc1cc(C(=O)N[C@@H]2CCCN(CC#Cc3cccc4c3CN(C3CCC(=O)NC3=O)C4=O)C2)ccc1NC(=O)[C@@H]1N[C@@H](CC(C)(C)C)[C@@]2(CNc3cc(Cl)ccc32)[C@H]1c1cccc(Cl)c1F (stereo partly drawn) [Example 50, (2′S,3S,4′S,5′R)-6-chloro-4′-(3-chloro-2-fluorophenyl)-2′-(2,2-dimethylpropyl)-N-(4-{[(3R)-1-{3-[2-(2,6-dioxopiperidin-3-yl)-1-oxo-3H-isoindol-4-yl]prop-2-yn-1-yl}piperidin-3-yl]carbamoyl}-2-methoxyphenyl)-1,2-dihydrospiro[indole-3,3′-pyrrolidine]-5′-carboxamide] | 7.63 | 8.80
4 | COc1cc(C(=O)NC23CC(C#Cc4cccc5c4CN(C4CCC(=O)NC4=O)C5=O)(C2)C3)ccc1NC(=O)[C@@H]1N[C@@H](CC(C)(C)C)[C@@]2(CNc3cc(Cl)ccc32)[C@H]1c1cccc(Cl)c1F (stereo partly drawn) [Example 21, (2′S,3S,4′S,5′R)-6-chloro-4′-(3-chloro-2-fluorophenyl)-2′-(2,2-dimethylpropyl)-N-{4-[(3-{2-[2-(2,6-dioxopiperidin-3-yl)-1-oxo-3H-isoindol-4-yl]ethynyl}bicyclo[1.1.1]pentan-1-yl)carbamoyl]-2-methoxyphenyl}-1,2-dihydrospiro[indole-3,3′-pyrrolidine]-5′-carboxamide] | 6.35 | 8.46
5 | COc1cc(C(=O)N2CCCC[C@@H]2CCC#Cc2cccc3c2CN([C@@H]2CCC(=O)NC2=O)C3=O)ccc1NC(=O)[C@@H]1N[C@@H](CC(C)(C)C)[C@@]2(CNc3cc(Cl)ccc32)[C@H]1c1cccc(Cl)c1F [Example 36, (2′S,3S,4′S,5′R)-6-chloro-4′-(3-chloro-2-fluorophenyl)-2′-(2,2-dimethylpropyl)-N-{4-[(2R)-2-(4-{2-[(3R)-2,6-dioxopiperidin-3-yl]-1-oxo-3H-isoindol-4-yl}but-3-yn-1-yl)piperidine-1-carbonyl]-2-methoxyphenyl}-1,2-dihydrospiro[indole-3,3′-pyrrolidine]-5′-carboxamide] | 7.45 | 8.69
6 | COc1cc(C(=O)N[C@H]2CCC[C@H](C#Cc3cccc4c3CN(C3CCC(=O)NC3=O)C4=O)C2)ccc1NC(=O)[C@@H]1N[C@@H](CC(C)(C)C)[C@@]2(CNc3cc(Cl)ccc32)[C@H]1c1cccc(Cl)c1F (stereo partly drawn) [Example 35, (2′S,3S,4′S,5′R)-6-chloro-4′-(3-chloro-2-fluorophenyl)-2′-(2,2-dimethylpropyl)-N-(4-{[(1S,3S)-3-{2-[2-(2,6-dioxopiperidin-3-yl)-1-oxo-3H-isoindol-4-yl]ethynyl}cyclohexyl]carbamoyl}-2-methoxyphenyl)-1,2-dihydrospiro[indole-3,3′-pyrrolidine]-5′-carboxamide] | 7.08 | 8.43
7 | COc1cc(C(=O)N[C@@H]2CCC[C@@H](C#Cc3cccc4c3CN(C3CCC(=O)NC3=O)C4=O)C2)ccc1NC(=O)[C@@H]1N[C@@H](CC(C)(C)C)[C@@]2(CNc3cc(Cl)ccc32)[C@H]1c1cccc(Cl)c1F (stereo partly drawn) [Example 34, (2′S,3S,4′S,5′R)-6-chloro-4′-(3-chloro-2-fluorophenyl)-2′-(2,2-dimethylpropyl)-N-(4-{[(1R,3R)-3-{2-[2-(2,6-dioxopiperidin-3-yl)-1-oxo-3H-isoindol-4-yl]ethynyl}cyclohexyl]carbamoyl}-2-methoxyphenyl)-1,2-dihydrospiro[indole-3,3′-pyrrolidine]-5′-carboxamide] | 6.91 | 8.70
8 | COc1cc(C(=O)N2CCC3(CC2)C[C@@H]3C#Cc2cccc3c2CN([C@H]2CCC(=O)NC2=O)C3=O)ccc1NC(=O)[C@@H]1N[C@@H](CC(C)(C)C)[C@@]2(CNc3cc(C(F)(F)F)ncc32)[C@H]1c1cccc(Cl)c1F [Example 56, (2S,3S,4S,5R)-4-(3-chloro-2-fluorophenyl)-N-(4-((S)-1-((2-((S)-2,6-dioxopiperidin-3-yl)-1-oxoisoindolin-4-yl)ethynyl)-6-azaspiro[2.5]octane-6-carbonyl)-2-methoxyphenyl)-2-neopentyl-6′-(trifluoromethyl)-1′,2′-dihydrospiro[pyrrolidine-3,3′-pyrrolo[3,2-c]pyridine]-5-carboxamide] | 8.96 | 7.63
9 | COc1cc(C(=O)N2CC[C@H](C#Cc3cccc4c3CN(C3CCC(=O)NC3=O)C4=O)C2)ccc1NC(=O)[C@@H]1N[C@@H](CC(C)(C)C)[C@@]2(CNc3cc(Cl)ccc32)[C@H]1c1cccc(Cl)c1F (stereo partly drawn) [Example 48, (2′S,3S,4′S,5′R)-6-chloro-4′-(3-chloro-2-fluorophenyl)-2′-(2,2-dimethylpropyl)-N-{4-[(3R)-3-{2-[2-(2,6-dioxopiperidin-3-yl)-1-oxo-3H-isoindol-4-yl]ethynyl}pyrrolidine-1-carbonyl]-2-methoxyphenyl}-1,2-dihydrospiro[indole-3,3′-pyrrolidine]-5′-carboxamide] | 7.91 | 8.92
10 | COc1cc(C(=O)N[C@H]2CCC[C@@H](C#Cc3cccc4c3CN(C3CCC(=O)NC3=O)C4=O)C2)ccc1NC(=O)[C@@H]1N[C@@H](CC(C)(C)C)[C@@]2(CNc3cc(Cl)ccc32)[C@H]1c1cccc(Cl)c1F (stereo partly drawn) [Example 32, (2′S,3S,4′S,5′R)-6-chloro-4′-(3-chloro-2-fluorophenyl)-2′-(2,2-dimethylpropyl)-N-(4-{[(1S,3R)-3-{2-[2-(2,6-dioxopiperidin-3-yl)-1-oxo-3H-isoindol-4-yl]ethynyl}cyclohexyl]carbamoyl}-2-methoxyphenyl)-1,2-dihydrospiro[indole-3,3′-pyrrolidine]-5′-carboxamide] | 7.08 | 8.59
11 | COc1cc(N2CCC[C@@H](C#Cc3cccc4c3CN([C@H]3CCC(=O)NC3=O)C4=O)C2)ccc1NC(=O)[C@@H]1N[C@@H](CC(C)(C)C)[C@@]2(CNc3cc(Cl)ccc32)[C@H]1c1cccc(Cl)c1F [Example 30, (2′S,3S,4′S,5′R)-6-chloro-4′-(3-chloro-2-fluorophenyl)-N-(4-((S)-3-((2-((S)-2,6-dioxopiperidin-3-yl)-1-oxoisoindolin-4-yl)ethynyl)piperidin-1-yl)-2-methoxyphenyl)-2′-neopentylspiro[indoline-3,3′-pyrrolidine]-5′-carboxamide] |  | 7.88
12 | COc1cc(N2CCC[C@H](C#Cc3cccc4c3CN([C@@H]3CCC(=O)NC3=O)C4=O)C2)ccc1NC(=O)[C@@H]1N[C@@H](CC(C)(C)C)[C@@]2(CNc3cc(Cl)ccc32)[C@H]1c1cccc(Cl)c1F [Example 29, (2′S,3S,4′S,5′R)-6-chloro-4′-(3-chloro-2-fluorophenyl)-N-(4-((R)-3-((2-((R)-2,6-dioxopiperidin-3-yl)-1-oxoisoindolin-4-yl)ethynyl)piperidin-1-yl)-2-methoxyphenyl)-2′-neopentylspiro[indoline-3,3′-pyrrolidine]-5′-carboxamide] |  | 7.92
13 | COc1cc(N2CCC[C@H](C#Cc3cccc4c3CN([C@H]3CCC(=O)NC3=O)C4=O)C2)ccc1NC(=O)[C@@H]1N[C@@H](CC(C)(C)C)[C@@]2(CNc3cc(Cl)ccc32)[C@H]1c1cccc(Cl)c1F [Example 28, (2′S,3S,4′S,5′R)-6-chloro-4′-(3-chloro-2-fluorophenyl)-N-(4-((R)-3-((2-((S)-2,6-dioxopiperidin-3-yl)-1-oxoisoindolin-4-yl)ethynyl)piperidin-1-yl)-2-methoxyphenyl)-2′-neopentylspiro[indoline-3,3′-pyrrolidine]-5′-carboxamide] |  | 7.97
14 | COc1cc(C(N)=O)ccc1NC(=O)[C@H]1N[C@H](CC(C)(C)C)[C@]2(CNc3cc(C(F)(F)F)ncc32)[C@@H]1c1cccc(Cl)c1F [Example 12, (2R,3R,4R,5S)—N-(4-carbamoyl-2-methoxyphenyl)-4-(3-chloro-2-fluorophenyl)-2-(2,2-dimethylpropyl)-6′-(trifluoromethyl)-1′,2′-dihydrospiro[pyrrolidine-3,3′-pyrrolo[3,2-c]pyridine]-5-carboxamide] |  | 6.99

From patent US20250073340A1, “SPIROCYCLIC MDM2 MODULATOR AND USES THEREOF” (Newave Pharmaceutical Inc., priority 2021, published 2025)
